Assay results taken from ChEMBL document CHEMBL4419176, “Compositions and methods for treating cancer” (2017).
Active and inactive are the calls of the source. No cut-off for these calls is given here.

Key:
[1] = biological target: Diacylglycerol kinase alpha (Homo sapiens) (UniProt P23743); assay: Inhibition of FLAG-tagged DGKa (unknown origin) using lipids and [gamma-32P]-ATP incubated for 15 mins by scintillation counting method
VMM39 [2] = assay: Cytotoxicity in human VMM39 cells assessed as reduction in cell viability at 25 to 150 uM by alamar blue dye based assay; format: functional
U-251 [3] = assay: Cytotoxicity in human U251 cells assessed as reduction in cell viability at 25 to 75 uM by alamar blue dye based assay; format: functional
VMM39 [4] = assay: Antitumor activity against human VMM39 cells xenografted in athymic nu/nu mouse assessed as induction of delay in tumor formation at 10 mg/kg dosed via daily oral gavage; format: functional, organism-based
[5] = biological target: Diacylglycerol kinase alpha (Homo sapiens) (UniProt P23743); assay: Inhibition of DGKa in human JWL578 cells transfected with mTOR promoter assessed as decrease in mTOR promoter activity at 20 uM incubated for 36 to 48 hrs by luciferase reporter gene assay; format: cell-based
[6] = biological target: Diacylglycerol kinase alpha (Homo sapiens) (UniProt P23743); assay: Inhibition of DGKa in human G88 cells assessed as decrease in RhoA expression by ELISA; format: cell-based
[7] = Synergistic cytotoxicity in human G88 cells assessed as combination index at 2 uM in presence of imatinib incubated for 5 days; format: functional
[8] = Cytotoxicity in human JWL578 cells assessed as reduction in cell viability incubated for 2 to 4 days by Trypan blue exclusion based hemocytometry; format: functional
VMM39 [9] = assay: Cytotoxicity in human VMM39 cells assessed as reduction in cell viability at 2.5 to 22.5 uM by alamar blue dye based assay; format: functional
[10] = biological target: Diacylglycerol kinase alpha (Homo sapiens) (UniProt P23743); assay: Inhibition of DGKa in human U251 cells assessed as reduction in P70 S6K phosphorylation at T389/T421 residues at 15 uM incubated for 24 hrs by dot-blot proteomics assay relative to baseline; format: cell-based
Homo sapiens [11] = species on record: Homo sapiens; assay: Cytotoxicity in human MPanc96 cells with TNFalpha-induced epithelial-mesenchymal transition at 15 uM; format: functional, cell-based
[12] = biological target: Diacylglycerol kinase alpha (Homo sapiens) (UniProt P23743); assay: Inhibition of DGKa in human U251 cells assessed as reduction in p53 phosphorylation at S15 residues at 15 uM incubated for 24 hrs by dot-blot proteomics assay relative to baseline; format: cell-based
Astrocyte [13] = assay: Cytotoxicity against immortalized astrocytes (unknown origin) assessed as reduction in cell viability at >20 uM incubated for 2 to 4 days by Trypan blue exclusion based hemocytometry
Homo sapiens [14] = species on record: Homo sapiens; assay: Increase in PDGFRA expression in human G88 cells at 3 uM by immunoblot analysis; format: functional, cell-based
[15] = biological target: Diacylglycerol kinase alpha (Homo sapiens) (UniProt P23743); assay: Inhibition of DGKa in human VMM39 cells assessed as reduction in p53 phosphorylation at S15 residues at 12.5 to 17.5 uM incubated for 24 hrs by immunoblot analysis; format: cell-based
A549 = assay: Cytotoxicity in human A549 cells with TNFalpha-induced epithelial-mesenchymal transition at 15 uM; format: functional, cell-based
U-251 [16] = assay: Cytotoxicity in human U251 cells assessed as reduction in cell viability at 10 uM in presence of 20 uM chloroquine incubated for 2 to 4 days by Trypan blue exclusion based hemocytometry; format: functional
[17] = biological target: Diacylglycerol kinase alpha (Homo sapiens) (UniProt P23743); assay: Inhibition of DGKa in human G2 cells assessed as decrease in RhoA expression by ELISA; format: cell-based
Homo sapiens [18] = species on record: Homo sapiens; assay: Cytotoxicity in human GB464 cells with TNFalpha-induced proneural-to- mesenchymal transition at 8 uM; format: functional, cell-based
[19] = biological target: Diacylglycerol kinase alpha (Homo sapiens) (UniProt P23743); assay: Inhibition of DGKa in human G88 cells assessed as decrease in GGTase-1 by measuring increase in unprenylated ras-related protein RaplA expression by immunoblot analysis; format: cell-based
[20] = biological target: Diacylglycerol kinase alpha (Homo sapiens) (UniProt P23743); assay: Inhibition of DGKa in human G88 cells assessed as decrease in NF-kappaB expression under 4 Gy irradiation by luciferase reporter gene assay; format: cell-based
[21] = biological target: Diacylglycerol kinase alpha (Homo sapiens) (UniProt P23743); assay: Inhibition of DGKa in human U251 cells assessed as reduction in p53 phosphorylation at S15 residues at 12.5 to 17.5 uM incubated for 24 hrs by immunoblot analysis; format: cell-based
[22] = biological target: Diacylglycerol kinase alpha (Homo sapiens) (UniProt P23743); assay: Inhibition of DGKa in human U251 cells transfected with HIF1a promoter assessed as decrease in HIF1a promoter activity at 20 uM incubated for 36 to 48 hrs by luciferase reporter gene assay; format: cell-based
U-251 [23] = assay: Cytotoxicity in human U251 cells assessed as reduction in cell viability at 2.5 to 17.5 uM by alamar blue dye based assay; format: functional
[24] = biological target: Diacylglycerol kinase alpha (Homo sapiens) (UniProt P23743); assay: Inhibition of DGKa in human G2 cells assessed as decrease in GGTase-1 by measuring increase in unprenylated ras-related protein RaplA expression by immunoblot analysis; format: cell-based
Homo sapiens [25] = species on record: Homo sapiens; assay: Cytotoxicity in human GB816 cells with TNFalpha-induced proneural-to- mesenchymal transition at 8 uM; format: functional, cell-based
Astrocyte [26] = assay: Cytotoxicity against immortalized astrocytes (unknown origin) assessed as reduction in cell viability at 10 to 15 uM in presence of 10 uM chloroquine incubated for 2 to 4 days by Trypan blue exclusion based hemocytometry
Homo sapiens [27] = assay: Antitumor activity against human G2 cells xenografted in orally dosed mouse assessed as increase in median mouse survival; format: functional, organism-based
B16 = assay: Cytotoxicity in mouse B16 cells assessed as reduction in cell viability at 10 uM in presence of 5 uM chloroquine incubated for 2 to 4 days by Trypan blue exclusion based hemocytometry; format: functional
[28] = biological target: Diacylglycerol kinase alpha (Homo sapiens) (UniProt P23743); assay: Inhibition of DGKa in human U251 cells transfected with mTOR promoter assessed as decrease in mTOR promoter activity at 20 uM incubated for 36 to 48 hrs by luciferase reporter gene assay; format: cell-based
U-251 [29] = assay: Cytotoxicity in human U251 cells assessed as reduction in cell viability at 10 uM in presence of phosphatidic acid incubated for 2 to 4 days by Trypan blue exclusion based hemocytometry; format: functional
Homo sapiens [30] = species on record: Homo sapiens; assay: Cytotoxicity in G528 cells (unknown origin) assessed as reduction in cell viability at 10 to 15 uM in presence of 10 uM chloroquine incubated for 2 to 4 days by Trypan blue exclusion based hemocytometry; format: functional
U-251 [31] = assay: Induction of autophagy in human U251 cells assessed as LC3-II accumulation at 10 uM in presence of 20 uM chloroquine by immunoblot analysis; format: functional, cell-based
GL261 [32] = assay: Antitumor activity against mouse GL261 cells implanted in mouse syngeneic immunocompetent tumor model assessed as reduction in tumor size at 50 mg/kg dosed via daily oral gavage starting 6 days post-tumor implantation and measured up to 100 days post tumor implantation by magnetic resonance imaging analysis; format: functional, organism-based
Homo sapiens [33] = species on record: Homo sapiens; assay: Cytotoxicity in human JWL578 cells assessed as reduction in cell viability at 10 uM in presence of phosphatidic acid incubated for 2 to 4 days by Trypan blue exclusion based hemocytometry; format: functional
GL261 [34] = assay: Antitumor activity against mouse GL261 cells implanted in mouse syngeneic immunocompetent tumor model assessed as reduction in tumor volume at 100 mg/kg dosed via daily oral gavage starting 6 days post-tumor implantation and measured up to 100 days post tumor implantation; format: functional, organism-based
VMM39 [35] = assay: Synergistic cytotoxicity in human VMM39 cells assessed as reduction in cell viability at 7.5 uM in presence of 50 uM TMZ by alamar blue dye based assay; format: functional
[36] = biological target: Diacylglycerol kinase alpha (Homo sapiens) (UniProt P23743); assay: Inhibition of DGKa in human U251 cells assessed as HSP60 protein level at 15 uM incubated for 24 hrs by dot-blot proteomics assay relative to baseline; format: cell-based; design: scale not given: the % may be the effect or the level left
VMM39 [37] = assay: Antitumor activity against human VMM39 cells xenografted in athymic nu/nu mouse assessed as induction of delay in tumor formation at 50 mg/kg dosed via daily oral gavage; format: functional, organism-based
A-375 [38] = assay: Antitumor activity against human A375 cells xenografted in athymic nu/nu mouse assessed as reduction in tumor volume at 50 mg/kg dosed via daily oral gavage starting 6 days post-tumor implantation and measured up to 50 days post tumor implantation; format: functional, organism-based
U-251 [39] = assay: Synergistic cytotoxicity in human U251 cells assessed as reduction in cell viability at 7.5 uM in presence of 50 uM TMZ by alamar blue dye based assay; format: functional
U-251 [40] = assay: Induction of apoptosis in human U251 cells at 10 to 20 uM by Annexin V-PE and 7-AAD staining based flow cytometry; format: functional, cell-based
VMM39 [41] = assay: Induction of apoptosis in human VMM39 cells at 10 to 20 uM by Annexin V-PE and 7-AAD staining based flow cytometry; format: functional, cell-based
A-375 [42] = assay: Antitumor activity against human A375 cells xenografted in athymic nu/nu mouse assessed as increase in mouse survival at 50 mg/kg dosed via daily oral gavage starting 6 days post-tumor implantation and measured up to 50 days post tumor implantation; format: functional, organism-based
[43] = Synergistic cytotoxicity in human G2 cells assessed as combination index at 2 uM in presence of imatinib incubated for 5 days; format: functional
GL261 [44] = assay: Cytotoxicity in mouse GL261 cells assessed as reduction in cell viability at 10 uM in presence of 10 uM chloroquine incubated for 2 to 4 days by Trypan blue exclusion based hemocytometry; format: functional
VMM39 [45] = assay: Cytotoxicity in human VMM39 cells assessed as reduction in cell viability at 15 uM in presence of 10 uM chloroquine incubated for 2 to 4 days by Trypan blue exclusion based hemocytometry; format: functional
[46] = biological target: Diacylglycerol kinase alpha (Homo sapiens) (UniProt P23743); assay: Inhibition of DGKa in human G2 cells assessed as decrease in NF-kappaB expression under 4 Gy irradiation by luciferase reporter gene assay; format: cell-based
U-251 [47] = assay: Antitumor activity against human U251 cells xenografted in athymic nu/nu mouse assessed as increase in mouse survival at 50 mg/kg dosed via daily oral gavage starting 7 days post-tumor implantation and measured up to 50 days post tumor implantation; format: functional, organism-based
Homo sapiens [48] = species on record: Homo sapiens; assay: Cytotoxicity in G34 cells (unknown origin) assessed as reduction in cell viability at 10 uM in presence of 5 uM chloroquine incubated for 2 to 4 days by Trypan blue exclusion based hemocytometry; format: functional
U-251 [49] = assay: Induction of apoptosis in human U251 cells at 10 to 20 uM in presence of apoptosis inhibitor ZVAD-FMK by Annexin V-PE and 7-AAD staining based flow cytometry; format: functional, cell-based
VMM39 [50] = assay: Induction of apoptosis in human VMM39 cells at 10 to 20 uM in presence of apoptosis inhibitor ZVAD-FMK by Annexin V-PE and 7-AAD staining based flow cytometry; format: functional, cell-based
Homo sapiens [51] = species on record: Homo sapiens; assay: Increase in PDGFRA expression in human G2 cells at 3 uM by immunoblot analysis; format: functional, cell-based
[52] = Selectivity ratio of cytotoxicity against human mesenchymal GBM cells to cytotoxicity against human non-mesenchymal cells at 1 to 30 uM; format: functional
U-251 [53] = assay: Induction of autophagy in human U251 cells assessed as LC3-II accumulation at 10 to 20 uM by immunoblot analysis; format: functional, cell-based

Sequence of Diacylglycerol kinase alpha (Homo sapiens) (P23743 whole entry): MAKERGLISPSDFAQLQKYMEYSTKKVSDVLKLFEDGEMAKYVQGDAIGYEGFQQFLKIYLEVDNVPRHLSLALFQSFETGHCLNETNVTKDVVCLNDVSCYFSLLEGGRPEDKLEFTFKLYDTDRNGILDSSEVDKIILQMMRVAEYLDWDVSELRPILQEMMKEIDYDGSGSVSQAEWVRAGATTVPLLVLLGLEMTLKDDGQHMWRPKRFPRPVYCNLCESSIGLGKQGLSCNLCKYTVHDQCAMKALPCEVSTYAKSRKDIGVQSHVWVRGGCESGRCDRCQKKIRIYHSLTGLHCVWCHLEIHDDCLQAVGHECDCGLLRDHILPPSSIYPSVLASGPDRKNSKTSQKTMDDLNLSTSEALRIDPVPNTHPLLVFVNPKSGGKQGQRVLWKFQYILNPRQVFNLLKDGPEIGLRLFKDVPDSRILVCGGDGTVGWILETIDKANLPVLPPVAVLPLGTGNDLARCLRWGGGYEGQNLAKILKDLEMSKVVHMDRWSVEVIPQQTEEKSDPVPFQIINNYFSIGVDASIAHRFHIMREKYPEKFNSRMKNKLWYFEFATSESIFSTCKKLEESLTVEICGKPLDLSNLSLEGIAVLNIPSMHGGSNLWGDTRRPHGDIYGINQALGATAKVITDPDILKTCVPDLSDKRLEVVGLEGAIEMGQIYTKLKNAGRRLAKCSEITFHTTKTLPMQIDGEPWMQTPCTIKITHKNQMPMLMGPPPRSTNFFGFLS

Cc1nc2sccn2c(=O)c1CCN1CCC(=C(c2ccccc2)c2ccc(F)cc2)CC1
inhibition [1]: Dose-dependent effect

Cn1nnc2c(C(N)=O)ncn2c1=O
Activity (VMM39 [2]): inactive
Activity (U-251 [3]): inactive

Cc1nc2sccn2c(=O)c1CCN1CCC(=C(c2ccc(F)cc2)c2ccc(F)cc2)CC1 [RITANSERIN]
Activity (VMM39 [4]): inactive
inhibition [5]: Active
inhibition [6]: Active
CI [7]: 0.25
IC50 [8]: 5 to 10 µM
inhibition [1]: Dose-dependent effect
Activity (VMM39 [9]): inactive
inhibition [10]: Active
Activity (Homo sapiens [11]): Active
inhibition [12]: Active
Activity (Astrocyte [13]): Non-Toxic
Activity (Homo sapiens [14]): Active
inhibition [15]: Active
Activity (A549): Active
Activity (U-251 [16]): Active
inhibition [17]: Active
Activity (Homo sapiens [18]): Active
inhibition [19]: Active
inhibition [20]: Active
inhibition [21]: Active
inhibition [22]: Active
Activity (U-251 [23]): inactive
inhibition [24]: Active
Activity (Homo sapiens [25]): Active
Activity (Astrocyte [26]): Non-Toxic
Activity (Homo sapiens [27]): Active
Activity (B16): Active
inhibition [28]: Active
Activity (U-251 [29]): inactive
Activity (Homo sapiens [30]): Active
Activity (U-251 [31]): Active
Activity (GL261 [32]): Active
Activity (Homo sapiens [33]): inactive
Activity (GL261 [34]): Active
Activity (VMM39 [35]): <=90%
Activity [36]: 10%
Activity (VMM39 [37]): Active
Activity (A-375 [38]): Active
Activity (U-251 [39]): <=90%
Activity (U-251 [40]): Active
Activity (VMM39 [41]): Active
Activity (A-375 [42]): Active
CI [43]: 0.24
Activity (GL261 [44]): Active
Activity (VMM39 [45]): Active
inhibition [46]: Active
Activity (U-251 [47]): Active
Activity (Homo sapiens [48]): Active
Activity (U-251 [49]): Active
Activity (VMM39 [50]): Active
Activity (Homo sapiens [51]): Active
Ratio [52]: 3 - 4
Activity (U-251 [53]): Active
